Results taken from US9138389B2, “Use of a jasmonic acid compound for treating greasy skin” (L'OREAL, priority 2009, dated 2015).

System: greasy skin
Assay: in vivo panel test with a cosmetic composition on greasy skin
Conditions: cosmetic composition comprising the compound

For CCCCCC1C(O)CCC1CC(=O)O (stereo not shown) [3-hydroxy-2-pentylcyclopentaneacetic acid], the “efficacy for treating greasy skin” value was “revealed the efficacy of the compound for treating greasy skin”.
